This is an account of results in patent publication US20200281873A1, “Adamantane or Bicyclic Monoterpenoid Derivatives for Use in the Treatment of Leishmaniasis” (Commissariat a l'Energie Atomique et aux Energies …, priority 2017, published 2020).

By CC50 is commonly meant the concentration that lowers cell viability or growth by half. Broadly, the IC50 is the concentration that inhibits the measured activity by half.

Read-outs that look alike come from different tables or passages of the source.

Data set [1] is described as follows: Cytotoxicity on RAW 264.7 macrophages. Format: cell-based, Mouse. Particulars: mouse, RAW 264.7 macrophages; Table I.
For data set [2], the system named is L. infantum intramacrophagic amastigotes. Description: L. donovani infantum/RAW 264.7 macrophage model (intramacrophagic amastigotes, SYBR Green I). Format: cell-based, Leishmania donovani infantum. The procedure:
Protocol for Evaluation on the L. donovani infantum/RAW 264.7 Macrophage Model (Intramacrophagic Amastigotes)
Mouse macrophage cells RAW 264.7 (ATCC) were seeded into a 96-well microplate and maintained in DMEM medium (Applied Biosystems, France) supplemented with 10% heat-inactivated fetal bovine serum in a 5% CO2 incubator at 37° C. for 24 h. Then, the medium was replaced with 100 μL fresh medium containing a suspension of 10^5 L. infantum amastigotes and the incubation time was 16 h. Then, extracellular parasites were eliminated from the medium and 100 μL fresh medium containing compound in various concentrations were added for a 48 h-incubation. Parasite growth was determined by using SYBR® Green I (Life technology, Fisher Scientific, France), a dye with marked fluorescence enhancement upon contact with DNA. The cell lysis suspension was diluted 1:1 in lysis buffer (10 mM NaCl, 1 mM Tris HCl pH8, 2.5 mM EDTA pH 8, 0.05% SDS, 0.01 mg/mL proteinase K and 10×SYBR Green I). Incorporation of SYBR Green I in DNA amplification was measured using the Master epRealplex cycler® (Eppendorf, France) according to the following program to increase the SYBR green incorporation: 90° C. for 1 min, decrease in temperature from 90° C. to 10° C. for 5 min with reading the fluorescence at 10° C. for 1 min and a new reading at 10° C. for 2 min. The EC50 as the concentration inhibiting the parasite growth by 50% was calculated by nonlinear regression using icestimator website 1.2 version: http://www.antimalarial-icestimator.net/MethodIntro.htm.

The subject of data set [3] is Leishmania infantum axenic amastigotes. Description: Evaluation on Leishmania donovani infantum axenic amastigotes (SYBR Green I). It is filed as cell-based. The procedure:
Protocol for Evaluation on Leishmania donovani infantum Axenic Amastigotes
Amastigote forms of the parasite were suspended to yield 10^7 parasitic cells mL^−1. The maximum final compound concentration used was 100 μM. Triplicates were used for each concentration. Cultures were incubated at 37° C. for 72 h in the dark and under a 5% CO2 atmosphere, then the viability of the amastigotes was assessed using the SYBR® Green I (Invitrogen, France) incorporation method. Parasite growth was determined by using SYBR® Green I, a dye with marked fluorescence enhancement upon contact with parasite DNA. Parasites were lysed and quantified by Direct PCR-Cell Genotyping without DNA isolation protocol (Euromedex, France). 10 μL of lysed parasite solution from each well was added to 40 μL of PCR-Cell reagent containing the SYBR® green I in a qPCR plate of 96 wells, and the contents were mixed. Fluorescence was measured with Mastercycler® ep realplex (Eppendorf, France). Measured fluorescence was compared to that from the range obtained with different parasite densities. The antileishmanial activity was expressed as IC50 in μM (concentration of drug inhibiting 50% of the parasite growth, comparatively to the controls treated with the excipient only).

The test system of data set [4] is L. infantum intramacrophagic amastigotes. Description: L. donovani infantum/RAW 264.7 macrophage model (intramacrophagic amastigotes, SYBR Green I). Format: cell-based, Leishmania donovani infantum. Particulars: Table I; ratio.
A further data set concerns RAW 264.7 macrophages. Description: Cytotoxicity on RAW 264.7 macrophages. Format: cell-based, Mouse. Particulars: Table I.
The test system of data set [5] is L. donovani (MHOM/ET/67/HU3) amastigotes. Kind of data set: In vivo antileishmanial evaluation, Leishmania donovani/Balb/c mouse model (liver parasite load). The following applies: for % reduction of parasite burden in the liver / LDU ± SD (parasites in the liver): Balb/c mice. The procedure: Compounds VP343, VP370 were evaluated in vivo for their antileishmanial properties by oral and intravenous route on the Leishmania donovani/Balb/c mouse model, comparatively to miltefosine, used as reference drug, according to a previously described protocol (Balaraman et al., 2015). Six- to eight-week-old Balb/c mice (Élevages Janvier, Le Genest Saint Isle, France) were infected intravenously on day 1 with 10^7 L. donovani (MHOM/ET/67/HU3) amastigotes derived from the spleen of hamsters and randomly sorted into four groups of 10 mice and one group of 12 mice as infected controls but not treated. The treatment administered orally or intravenously, started one week post-infection, on day 8, and continued for 5 consecutive days. At day 15, all groups of mice were autopsied and livers and spleens were weighed. Parasite load in the liver was determined by counting the number of amastigotes/500 liver cells in Giemsa-stained impression smears prepared from the liver and applying Stauber's formula. Three researchers counted the slides independently and the results are expressed as the mean values±SD. The parasite burden of treated groups and controls were compared using Student's t-test or the Kruskal-Wallis nonparametric analysis of variance test for comparing two groups. Significance was established for a P value<0.05.

Data set [6] can be described thus: In vivo toxicity evaluation by oral route in mice (serum biochemical parameters). Set-up: species or system Balb/C female mice; Serum urea: unit not given here. The procedure:
Biochemical parameters relative to VP343 and VP370 toxicity in Balb/C female mice (18-20 g) after a single treatment by oral route at 100 mg/kg under a 0.1 mL volume (=5 mL/kg). Serum were collected one week after the treatment. Excipient: Methylcellulose 1%+Tween 0.1%.
Dosages were performed with a Cobas 800 (Roche/Hitachi) apparatus.

Where [7] appears, read: Leishmania infantum, Macrophage, Table II, 3 different experiments, SYBR Green I method, read-out: IC50 intramacrophagic.
The mark [8] stands for this setting: Leishmania infantum, RAW264.7, Table I, RAW 264.7 macrophages, 48 h incubation, read-out: Intramacrophagic amastigotes IC50.
The mark [9] stands for this setting: Leishmania infantum, Table I, 72 h incubation, read-out: Axenic amastigotes IC50.
The mark [10] stands for this setting: Leishmania infantum, Table II, 3 different experiments, SYBR Green I method, read-out: IC50 axenic.
[11] abbreviates: intravenous route, 10 mg/kg/day × 5.
Setting [12] is: single oral treatment 100 mg/kg, serum one week after treatment.

Compound `COc1ccc(Br)cc1CNC12CC3CC(CC(C3)C1)C2` [ABMA] registered a CC50 in data set [1] of 25300 ± 2400 nM. Also, the IC50 is 7100 nM in data set [2] (setting [7]), 7100 ± 1700 nM in data set [2] (setting [8]), greater than 100000 nM in data set [3] (setting [9]) and greater than 100000 nM in data set [3] (setting [10]). In addition, in data set [4], the “Selectivity IC50 (Axenic amastigotes)/IC50 (Intramacrophagic amastigotes)” value (“Selectivity IC50” below) was greater than 14.

In turn, `C[C@@H]1[C@H](O)[C@@H](C)/C=C/C=C/C=C/C=C/C=C/C=C/C=C/[C@H](O[C@@H]2O[C@H](C)[C@@H](O)[C@H](N)[C@@H]2O)C[C@@H]2O[C@](O)(C[C@@H](O)C[C@@H](O)[C@H](O)CC[C@@H](O)C[C@@H](O)CC(=O)O[C@H]1C)C[C@H](O)[C@H]2C(=O)O` [Amphotericin B, reference compound] came in with a CC50 in the data set on RAW 264.7 macrophages of 4500 ± 400 nM. Also, the half-maximal inhibitory concentration (IC50) in data set [2] (Table I, RAW 264.7 macrophages, 48 h incubation, read-out: Intramacrophagic amastigotes IC50) came out at 47 ± 5 nM; in data set [3] (Table I, 72 h incubation, read-out: Axenic amastigotes IC50), 31 ± 2 nM. Further, in data set [4], the “Selectivity IC50” value is less than 1.

The compound `CCCCCCCCCCCCCCCCOP(=O)([O-])OCC[N+](C)(C)C` [Miltefosine, reference compound] displayed a CC50 in data set [1] of 12500 ± 1300 nM. Besides, the figures for the half-inhibitory concentration (IC50) in data set [2] (setting [8]) and in data set [3] (setting [9]) were 850 ± 200 nM and 1200 ± 500 nM, respectively. The “% reduction of parasite burden in the liver” value was found to be 65.9% in data set [5] (setting [11]) and 84.6% in data set [5] (oral route, 10 mg/kg/day × 5). For the same compound, the “LDU ± SD (parasites in the liver)” value in data set [5] (setting [11]) is on record as 0.36 ± 0.08 ×10^8; in data set [5] (oral route, 10 mg/kg/day × 5, autopsy day 15) it was 0.19 ± 0.09 ×10^9. Besides, in data set [4], the “Selectivity IC50” value is 1.4.

On to `COc1ccc(Br)cc1/C=N/C12CC3CC(CC(C3)C1)C2` [VP300A], for which the IC50 in data set [2] (setting [7]) came to 210 nM; in data set [3] (setting [10]) it was 4530 nM.

`COc1ccc(Br)cc1CN[C@@H]1C[C@H]2CC[C@]1(C)C2(C)C` [VP305]: the concentration for half-maximal inhibition (IC50) in data set [2] (setting [7]) is 60 nM; in data set [3] (setting [10]), less than 500 nM.

For `COc1ccc(Br)cc1CN[C@@H]1C[C@@H]2C[C@H]([C@H]1C)C2(C)C` [VP330], the values for the IC50 in data set [2] (setting [7]) and in data set [3] (setting [10]) were 250 nM and 4860 nM, respectively.

With `C[C@@H]1[C@@H](NCc2ccoc2)C[C@H]2C[C@@H]1C2(C)C` [VP354], the IC50 in data set [2] (setting [7]) was found to be 420 nM; in data set [3] (setting [10]), 4100 nM.

On to `C[C@@H]1[C@@H](NCc2ncc[nH]2)C[C@H]2C[C@@H]1C2(C)C` [VP358], for which the values for the IC50 in data set [2] (setting [7]) and in data set [3] (setting [10]) were 570 nM and 13000 nM, respectively.

Take `C[C@@H]1[C@@H](NCc2c[nH]c3ccccc23)C[C@H]2C[C@@H]1C2(C)C` [VP359]: the values for the IC50 in data set [2] (setting [7]) and in data set [3] (setting [10]) were 250 nM and greater than 100000 nM, respectively.

On to `C[C@@H]1[C@@H](NCc2cccc(Br)c2)C[C@H]2C[C@@H]1C2(C)C` [VP361], for which the concentration for half-maximal inhibition (IC50) in data set [2] (setting [7]) is 390 nM; in data set [3] (setting [10]) it was 3700 nM.

Take `COc1ccccc1CN[C@H]1C[C@H]2C[C@@H]([C@@H]1C)C2(C)C` [VP363]: the 50% inhibitory concentration (IC50) came out at 190 nM in data set [2] (setting [7]) and 9990 nM in data set [3] (setting [10]).

With `COc1ccc(OC)c(CN[C@H]2C[C@H]3C[C@@H]([C@@H]2C)C3(C)C)c1` [VP369], the results for the IC50 in data set [2] (setting [7]) and in data set [3] (setting [10]) were 110 nM and 15400 nM, respectively.

As for `COc1cccc(OC)c1CN[C@H]1C[C@H]2C[C@@H]([C@@H]1C)C2(C)C` [VP370], in data set [6] (setting [12]), the “Serum AST ± SD” value is listed as 330 ± 68 U/L, the “Serum AST ± SD (second AST column)” value is on record as 197 ± 41 U/L, the Serum creatinin is less than 18 µM and the Serum urea was found to be 7.9 ± 1.5. In data set [6] (single treatment by oral route at 100 mg/kg), the “Toxicity after single oral treatment (in words)” value is “did not show toxicity”. For the same compound, the IC50 in data set [2] (setting [7]) is 40 nM. The “% reduction of parasite burden in the liver” value in data set [5] (oral route, 20 mg/kg/day × 5) worked out at 62.7%. Further, in data set [5] (oral route, 20 mg/kg/day × 5, autopsy day 15), the “LDU ± SD (parasites in the liver)” value is reported as 0.46 ± 0.12 ×10^9. In data set [5] (VP343 and VP370 at 20 mg/kg/day×5, VP343 also at 10 mg/kg/day×5, Tukey's multiple comparisons test), the “Activity in vivo by oral route (in words)” value is on record as “significantly active”. Besides, the half-inhibitory concentration (IC50) in data set [3] (setting [10]) stood at 36300 nM.

Consider `C[C@@H]1[C@@H](NCc2cccc(Cl)c2)C[C@H]2C[C@@H]1C2(C)C` [VP371], for which the IC50 in data set [2] (setting [7]) is 190 nM; in data set [3] (setting [10]), 30500 nM.

As for `C[C@@H]1[C@@H](NCc2cc(F)ccc2F)C[C@H]2C[C@@H]1C2(C)C` [VP381], the IC50 stood at 170 nM in data set [2] (setting [7]) and 58800 nM in data set [3] (setting [10]).

For `C[C@@H]1[C@@H](NCc2ccc(I)cc2)C[C@H]2C[C@@H]1C2(C)C` [VP390], the figures for the 50% inhibitory concentration (IC50) in data set [2] (setting [7]) and in data set [3] (setting [10]) were 270 nM and 21600 nM, respectively.

Turning to `Cc1ccccc1CN[C@H]1C[C@H]2C[C@@H]([C@@H]1C)C2(C)C` [VP391], the IC50 in data set [2] (setting [7]) is 210 nM; in data set [3] (setting [10]), 7550 nM.

Turning to `C[C@@H]1[C@@H](NCc2ccc(-n3ccnc3)cc2)C[C@H]2C[C@@H]1C2(C)C` [VP393], the values for the IC50 in data set [2] (setting [7]) and in data set [3] (setting [10]) were 290 nM and 8900 nM, respectively.

In the case of `Cc1ccc(-c2ccc(CN[C@H]3C[C@H]4C[C@@H]([C@@H]3C)C4(C)C)cc2)cc1` [VP396], the figures for the 50% inhibitory concentration (IC50) in data set [2] (setting [7]) and in data set [3] (setting [10]) were 210 nM and 5560 nM, respectively.

With `C[C@@H]1[C@@H](NCc2ccc3c(c2)Cc2ccccc2-3)C[C@H]2C[C@@H]1C2(C)C` [VP397], the IC50 in data set [2] (setting [7]) came out at 500 nM; in data set [3] (setting [10]), 9720 nM.
